# Measured values as given in US8338594B2, “Pyrrolotriazine derivatives useful for treating cancer through inhibition of aurora kinase” (Bayer HealthCare LLC, priority 2005, dated 2012).
# Experiments:
# [1] = molecular target: T1, murine Aurora Kinase 1 (mAur1) (Mus musculus, UniProt O70126); assay: murine Aurora Kinase 1 (mAur1) biochemical Scintillation Proximity Assay; conditions: SPA, biotinylated Peptide 830, 1 μM ATP, 12 nM GST-tagged mAur 1 co-expressed with human INCENP
# T1 construct: recombinant, GST-tagged mAur 1 (amino acids 67-345) that was co-expressed with human INCENP; GST; made in house
# T1 sequence (O70126 67-345): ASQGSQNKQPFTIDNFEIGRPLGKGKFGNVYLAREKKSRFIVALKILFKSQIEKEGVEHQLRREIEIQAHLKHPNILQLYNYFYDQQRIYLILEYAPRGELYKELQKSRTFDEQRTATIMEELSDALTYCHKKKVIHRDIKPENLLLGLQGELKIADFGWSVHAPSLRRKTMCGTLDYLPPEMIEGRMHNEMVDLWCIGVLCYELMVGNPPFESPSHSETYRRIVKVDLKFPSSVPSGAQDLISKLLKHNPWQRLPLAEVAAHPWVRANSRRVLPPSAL
# T1 sequence (Q9NQS7 704-918 partner): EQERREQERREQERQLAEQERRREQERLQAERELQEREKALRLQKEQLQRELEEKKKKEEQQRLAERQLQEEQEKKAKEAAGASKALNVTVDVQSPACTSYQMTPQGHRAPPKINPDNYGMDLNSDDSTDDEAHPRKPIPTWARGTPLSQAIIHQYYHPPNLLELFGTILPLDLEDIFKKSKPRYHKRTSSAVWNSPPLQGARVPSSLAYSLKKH
# Method: (§1) Using a Scintillation Proximity Assay (SPA) format, the murine Aurora Kinase 1 (mAur1) and murine Aurora Kinase 2 (mAur2) biochemical assay measures the ability of mAur2 to phosphorylate the substrate, biotinylated Peptide 830 (DRT, Protein Sciences). Once radiolabeled by the enzyme, the biotinylated substrate is captured on streptavidin-coated SPA beads and the radioactivity, in proximity to the SPA beads, is measured. For the generation of IC50 curves, the reaction was performed in 96-well isoplates (Wallac 1450-514) under the following conditions: a 10 mM stock solution of compound (in 100% dimethylsulfoxide; DMSO) was diluted 10 fold in 100% DMSO. Compounds were then serially diluted, 1:5, for an eight point dose curve, in 100% DMSO. A volume of 1 μL of the diluted compound was added to the reaction buffer that consisted of 25 mM HEPES pH 7.5, 1 mM MnCl2, 1 mM MgCl2, 1 mM DTT, 0.01% Tween20. A mixture with a final concentration per well of 1 μM cold ATP, 0.1 μCi ^33P-ATP (Amersham AH9968) and 1 μM biotinylated Peptide 830 was then added. The reaction was initiated with the addition of either recombinant, GST-tagged mAur 1 (amino acids 67-345) that was co-expressed with human INCENP (amino acids 704-919) (DRT, Protein Sciences) at a final concentration of 12 nM or N-terminal His-tagged mAur2 (amino acids 98-395; DRT, Protein Sciences) at a final concentration of 20 nM. The final reaction volume in each well was 100 μL and the final compound concentration ranged from 10 μM-[…] in 1% DMSO. The reaction mixture was allowed to incubate for 1-2 hours with gentle agitation at 25° C. To terminate the reaction, streptavidin-coated SPA beads (Amersham RPNQ0007; 50 μL of 0.5 mg beads dissolved in 165 mM EDTA) were then added to each well and incubation proceeded for an additional 15 minutes at 25° C. The plate was then centrifuged for ten minutes at 2000 rpm. Phosphorylation of the peptide substrate was measured using a Wallac 1450 Microbeta Plus Liquid Scintillation Counter.
# [2] = molecular target: T2, murine Aurora Kinase 2 (mAur2) (Mus musculus, UniProt P97477); assay: murine Aurora Kinase 2 (mAur2) biochemical Scintillation Proximity Assay; conditions: SPA, biotinylated Peptide 830, 1 μM ATP, 20 nM His-tagged mAur2
# T2 construct: N-terminal His-tagged mAur2 (amino acids 98-395; DRT, Protein Sciences); His (N); made in house
# T2 sequence (P97477 98-395): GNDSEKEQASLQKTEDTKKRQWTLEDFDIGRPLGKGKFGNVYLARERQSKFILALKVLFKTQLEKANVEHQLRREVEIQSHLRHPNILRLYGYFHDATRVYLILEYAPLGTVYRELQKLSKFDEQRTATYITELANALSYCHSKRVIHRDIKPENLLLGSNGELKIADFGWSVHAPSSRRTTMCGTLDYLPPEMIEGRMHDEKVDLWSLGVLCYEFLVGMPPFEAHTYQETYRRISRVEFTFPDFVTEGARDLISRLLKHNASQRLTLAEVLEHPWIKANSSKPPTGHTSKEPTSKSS
# Method: as §1
Compound,IC50 [1],IC50 [2]
"Nc1ncnn2cc(C(=O)NCC(F)(F)F)c(-c3ccc(Nc4nc5cc(I)cnc5[nH]4)cc3)c12 [Example 25, 4-amino-5-{4-[(6-iodo-3H-imidazo[4,5-b]pyridin-2-yl)amino]phenyl}-N-(2,2,2-trifluoroethyl)pyrrolo[2,1-f][1,2,4]triazine-6-carboxamide]",< 100 nM,< 100 nM
"Nc1ncnn2cc(C(=O)N3CCOCC3)c(-c3ccc(Nc4nc5cc(F)cc(F)c5[nH]4)cc3)c12 [Example 76, 5-{4-[(5,7-difluoro-1H-benzimidazol-2-yl)amino]phenyl}-6-(morpholin-4-ylcarbonyl)pyrrolo[2,1-f][1,2,4]triazin-4-amine]",< 100 nM,< 100 nM
"Nc1ncnn2cc(C(=O)O)c(-c3ccc(Nc4nc5cc(F)cc(F)c5[nH]4)cc3)c12 [Example 71, 4-amino-5-{4-[(5,7-difluoro-1H-benzimidazol-2-yl)amino]phenyl}pyrrolo[2,1-f][1,2,4]triazine-6-carboxylic acid]",< 100 nM,< 100 nM
"CCN(C(=O)c1cn2ncnc(N)c2c1-c1ccc(Nc2nc3cc(F)cc(F)c3[nH]2)cc1)C(C)C [Example 90, 4-amino-5-{4-[(5,7-difluoro-1H-benzimidazol-2-yl)amino]phenyl}-N-ethyl-N-isopropylpyrrolo[2,1-f][1,2,4]triazine-6-carboxamide]",< 100 nM,< 100 nM
"Nc1ncnn2cc(C(=O)NCC(F)(F)F)c(-c3ccc(Nc4nc5cc(F)c(F)cc5[nH]4)cc3)c12 [Example 14, 4-amino-5-{4-[(5,6-difluoro-1H-benzimidazol-2-yl)amino]phenyl}-N-(2,2,2-trifluoroethyl)pyrrolo[2,1-f][1,2,4]triazine-6-carboxamide]",< 100 nM,< 100 nM
"Cc1cccc(Oc2ccc3nc(Nc4ccc(-c5c(C(=O)NCC(F)(F)F)cn6ncnc(N)c56)cc4)[nH]c3c2F)c1 [Example 42, 4-amino-5-(4-{[7-fluoro-6-(3-methylphenoxy)-1H-benzimidazol-2-yl]amino}phenyl)-N-(2,2,2-trifluoroethyl)pyrrolo[2,1-f][1,2,4]triazine-6-carboxamide]",< 100 nM,< 100 nM
"CN(C)C(=O)c1cn2ncnc(N)c2c1-c1ccc(Nc2nc3cc(F)cc(F)c3[nH]2)cc1 [Example 74, 4-amino-5-{4-[(5,7-difluoro-1H-benzimidazol-2-yl)amino]phenyl}-N,N-dimethylpyrrolo[2,1-f][1,2,4]triazine-6-carboxamide]",< 100 nM,< 100 nM
"Nc1ncnn2cc(C(=O)NC3CCCC3)c(-c3ccc(Nc4nc5cc(F)cc(F)c5[nH]4)cc3)c12 [Example 85, 4-amino-N-cyclopentyl-5-{4-[(5,7-difluoro-1H-benzimidazol-2-yl)amino]phenyl}pyrrolo[2,1-f][1,2,4]triazine-6-carboxamide]",< 100 nM,< 100 nM
"Nc1ncnn2cc(C(=O)N3CCCC3)c(-c3ccc(Nc4nc5cc(F)cc(F)c5[nH]4)cc3)c12 [Example 96, 5-{4-[(5,7-difluoro-1H-benzimidazol-2-yl)amino]phenyl}-6-(pyrrolidin-1-ylcarbonyl)pyrrolo[2,1-f][1,2,4]triazin-4-amine]",< 100 nM,< 100 nM
"Nc1ncnn2cc(C(=O)N3CCCC3)c(-c3ccc(Nc4nc5ccc(Oc6ccccc6)c(F)c5[nH]4)cc3)c12 [Example 113, 5-{4-[(7-fluoro-6-phenoxy-1H-benzimidazol-2-yl)amino]phenyl}-6-(pyrrolidin-1-ylcarbonyl)pyrrolo[2,1-f][1,2,4]triazin-4-amine]",< 100 nM,< 100 nM
"Nc1ncnn2cc(C(=O)NCC(F)(F)F)c(-c3ccc(Nc4nc5ccc(Sc6cccc(F)c6)nc5[nH]4)cc3)c12 [Example 50, 4-amino-5-[4-({5-[(3-fluorophenyl)thio]-3H-imidazo[4,5-b]pyridin-2-yl}amino)phenyl]-N-(2,2,2-trifluoroethyl)pyrrolo[2,1-f][1,2,4]triazine-6-carboxamide]",< 100 nM,< 100 nM
"Nc1ncnn2cc(C(=O)NCC3CC3)c(-c3ccc(Nc4nc5cc(F)cc(F)c5[nH]4)cc3)c12 [Example 80, 4-amino-N-(cyclopropylmethyl)-5-{4-[(5,7-difluoro-1H-benzimidazol-2-yl)amino]phenyl}pyrrolo[2,1-f][1,2,4]triazine-6-carboxamide]",< 100 nM,< 100 nM
"COCc1cccc(-c2ccc3nc(Nc4ccc(-c5c(C(=O)NCC(F)(F)F)cn6ncnc(N)c56)cc4)[nH]c3n2)c1 [Example 116, 4-amino-5-[4-({5-[3-(methoxymethyl)phenyl]-3H-imidazo[4,5-b]pyridin-2-yl}amino)phenyl]-N-(2,2,2-trifluoroethyl)pyrrolo[2,1-f][1,2,4]triazine-6-carboxamide]",< 100 nM,< 100 nM
"COCC1CCCN1C(=O)c1cn2ncnc(N)c2c1-c1ccc(Nc2nc3cc(F)cc(F)c3[nH]2)cc1 (stereo not drawn) [Example 91, 5-{4-[(5,7-difluoro-1H-benzimidazol-2-yl)amino]phenyl}-6-{[2-(methoxymethyl)pyrrolidin-1-yl]carbonyl}pyrrolo[2,1-f][1,2,4]triazin-4-amine]",< 100 nM,< 100 nM
"CCNC(=O)c1cn2ncnc(N)c2c1-c1ccc(Nc2nc3cc(F)cc(F)c3[nH]2)cc1 [Example 73, 4-amino-5-{4-[(5,7-difluoro-1H-benzimidazol-2-yl)amino]phenyl}-N-ethylpyrrolo[2,1-f][1,2,4]triazine-6-carboxamide]",< 100 nM,< 100 nM
"Nc1ncnn2cc(C(=O)NCC(F)(F)F)c(-c3ccc(Nc4nc5ccc(Br)cc5[nH]4)cc3)c12 [Example 9, 4-amino-5-{4-[(6-bromo-1H-benzimidazol-2-yl)amino]phenyl}-N-(2,2,2-trifluoroethyl)pyrrolo[2,1-f][1,2,4]triazine-6-carboxamide]",< 100 nM,< 100 nM
"Nc1ncnn2cc(C(=O)NCC(F)(F)F)c(-c3ccc(Nc4nc5cscc5[nH]4)cc3)c12 [Example 16, 4-amino-5-[4-(1H-thieno[3,4-d]imidazol-2-ylamino)phenyl]-N-(2,2,2-trifluoroethyl)pyrrolo[2,1-f][1,2,4]triazine-6-carboxamide]",< 100 nM,< 100 nM
"Nc1ncnn2cc(C(=O)NCC(F)(F)F)c(-c3ccc(Nc4nc5ccccc5[nH]4)cc3)c12 [Example 1, 4-amino-5-[4-(1H-benzimidazol-2-ylamino)phenyl]-N-(2,2,2-trifluoroethyl)pyrrolo[2,1-f][1,2,4]triazine-6-carboxamide]",< 100 nM,< 100 nM
"Nc1ncnn2cc(C(=O)NCC(F)(F)F)c(-c3ccc(Nc4nc5ccc(C(F)(F)F)nc5[nH]4)cc3)c12 [Example 120, 4-amino-N-(2,2,2-trifluoroethyl)-5-(4-{[5-(trifluoromethyl)-3H-imidazo[4,5-b]pyridin-2-yl]amino}phenyl)pyrrolo[2,1-f][1,2,4]triazine-6-carboxamide]",< 100 nM,< 100 nM
"Nc1ncnn2cc(C(=O)NCC(F)(F)F)c(-c3ccc(Nc4nc5ccc(NC6CCCCC6)nc5[nH]4)cc3)c12 [Example 48, 4-amino-5-(4-{[5-(cyclohexylamino)-3H-imidazo[4,5-b]pyridin-2-yl]amino}phenyl)-N-(2,2,2-trifluoroethyl)pyrrolo[2,1-f][1,2,4]triazine-6-carboxamide]",< 100 nM,< 100 nM
"CCCNc1ccc2nc(Nc3ccc(-c4c(C(=O)NCC(F)(F)F)cn5ncnc(N)c45)cc3)[nH]c2n1 [Example 55, 4-amino-5-(4-{[5-(propylamino)-3H-imidazo[4,5-b]pyridin-2-yl]amino}phenyl)-N-(2,2,2-trifluoroethyl)pyrrolo[2,1-f][1,2,4]triazine-6-carboxamide]",< 100 nM,< 100 nM
